# Source: patent US20110190365A1, “Insecticidal 4-phenyl-1H-pyrazoles” (Bayer Crop Science AG, priority 2008, published 2011)
# Assay: log P by HPLC on a reversed-phase column (C18), EEC Directive 79/831 Annex V.A8
# Type: physicochemical
# Conditions: HCOOH
# Method: The stated log P values were determined in accordance with EEC Directive 79/831 Annex V.A8 by HPLC (High Performance Liquid Chromatography) using a reversed-phase column (C18).
row,Structure (SMILES),log P (HCOOH)
1,CSc1cc(-n2nc(C(C)(C)C)c(-c3cc(Cl)cc(Cl)c3)c2N)ccc1C(=O)NCc1ccccn1 [I-A-Q2-408],I-A-Q2-408: log P (HCOOH): 3.68
2,Cc1cc(-n2nc(C(F)(F)F)c(-c3cc(Cl)cc(Cl)c3)c2N)ccc1C(=O)NC(Cc1ccccn1)C(F)(F)F (stereo not drawn) [I-A-Q2-049],I-A-Q2-049: log P (HCOOH): 4.28
3,Cc1nc(CNC(=O)c2ccc(-n3nc(C(F)(F)F)c(-c4cc(Cl)cc(Cl)c4)c3N)cc2C)cs1 [I-A-Q2-041],I-A-Q2-041: log P (HCOOH): 3.94
4,C=CCNC(=O)c1ccc(-n2nc(C(F)(F)F)c(-c3cc(Cl)cc(Cl)c3)c2N)nc1 [I-A-Q2-104],I-A-Q2-104: log P (HCOOH): 4.46
5,Cc1cc(-n2nc(C3CC3)c(-c3ccc(Cl)cc3)c2N)ccc1C(=O)NCc1ccccn1 [I-A-Q2-381],I-A-Q2-381: log P (HCOOH): 2.46
6,Nc1c(-c2cc(Cl)cc(Cl)c2)c(C(F)(F)F)nn1-c1ccc(C(=O)NC2CC2)cc1 [I-A-Q2-136],I-A-Q2-136: log P (HCOOH): 3.80
7,Cc1cc(-n2nc(C(F)(F)F)c(-c3cc(Cl)cc(Cl)c3)c2N)ccc1C(=O)NCc1cc(F)cc(F)c1 [I-A-Q2-040],I-A-Q2-040: log P (HCOOH): 4.57
8,CC(NC(=O)c1ccc(-n2nc(C(F)(F)F)c(-c3ccccc3Cl)c2N)cc1)C(F)(F)F (stereo not drawn) [I-A-Q2-079],I-A-Q2-079: log P (HCOOH): 3.37
9,CC(NC(=O)c1ccc(-n2nc(C(F)(F)F)c(-c3ccc(Cl)c(F)c3)c2N)cc1)C(F)(F)F (stereo not drawn) [I-A-Q2-166],I-A-Q2-166: log P (HCOOH): 3.84
10,Cc1cc(-n2nc(C(F)(F)F)c(-c3cc(C(F)(F)F)cc(C(F)(F)F)c3)c2N)ccc1C(=O)NCc1ccccn1 [I-A-Q2-360],I-A-Q2-360: log P (HCOOH): 3.47
11,Nc1c(-c2ccccc2Cl)c(C(F)(F)F)nn1-c1ccc(C(=O)NCc2ncccn2)cc1 [I-A-Q2-080],I-A-Q2-080: log P (HCOOH): 2.38
12,Cc1cc(-n2nc(C(F)(F)F)c(-c3ccc(F)c(Cl)c3)c2N)ccc1C(=O)NCc1ccccn1 [I-A-Q2-352],I-A-Q2-352: log P (HCOOH): 2.76
13,Cc1cc(-n2nc(C(F)(F)F)c(-c3cc(Cl)cc(Cl)c3)c2N)ccc1C(=O)NCC(F)F [I-A-Q2-017],I-A-Q2-017: log P (HCOOH): 4.04
14,Cc1cc(-n2nc(C(F)(F)F)c(-c3ccccc3Cl)c2N)ccc1C(=O)NCC1CC1 [I-A-Q2-413],I-A-Q2-413: log P (HCOOH): 3.37
15,CCNC(=O)c1ccc(-n2nc(C(F)(F)F)c(-c3cc(Cl)cc(Cl)c3)c2N)cc1 [I-A-Q2-142],I-A-Q2-142: log P (HCOOH): 3.77
16,CCC(NC(=O)c1ccc(-n2nc(C(F)(F)F)c(-c3cc(Cl)cc(Cl)c3)c2N)cc1C)C(F)(F)F (stereo not drawn) [I-A-Q2-200],I-A-Q2-200: log P (HCOOH): 4.82

row,Structure (SMILES),log P (HCOOH)
1,Nc1c(-c2cc(Cl)cc(Cl)c2)c(C(F)(F)F)nn1-c1ccc(C(=O)NCc2ccccn2)cn1 [I-A-Q2-105],I-A-Q2-105: log P (HCOOH): 3.61
2,Cc1cc(-n2nc(C(F)(F)Oc3cccc(Cl)c3)c(-c3cc(Cl)cc(C(F)(F)F)c3)c2N)ccc1C(=O)NCC(F)(F)C(F)F [I-A-Q2-297],I-A-Q2-297: log P (HCOOH): 4.95
3,Cc1cc(-n2nc(C(F)(F)F)c(-c3cc(Cl)cc(Cl)c3)c2N)ccc1C(=O)NC(C)c1ccc(Cl)nc1 (stereo not drawn) [I-A-Q2-248],I-A-Q2-248: log P (HCOOH): 4.34
4,CC(NC(=O)c1ccc(-n2nc(C(F)(F)F)c(-c3cc(F)cc(Cl)c3)c2N)cc1)c1ccccc1 (stereo not drawn) [I-A-Q2-090],I-A-Q2-090: log P (HCOOH): 4.11
5,Cc1cc(-n2nc(C(F)(F)F)c(-c3cc(Cl)cc(Cl)c3)c2N)ccc1C(=O)NCc1ccccc1F [I-A-Q2-112],I-A-Q2-112: log P (HCOOH): 4.34
6,Cc1cc(-n2nc(C)c(-c3ccc(F)cc3F)c2N)ccc1C(=O)NCc1ccccn1 [I-A-Q2-370],I-A-Q2-370: log P (HCOOH): 1.64
7,Cc1cc(-n2nc(C)c(-c3ccc(F)cc3F)c2N)ccc1C(=O)NCC(F)(F)C(F)F [I-A-Q2-329],I-A-Q2-329: log P (HCOOH): 2.59
8,Cc1cc(-n2nc(C(F)(F)F)c(-c3cc(Cl)cc(Cl)c3)c2N)ccc1C(=O)N(C)Cc1ccccn1 [I-A-Q2-110],I-A-Q2-110: log P (HCOOH): 2.69
9,Nc1c(-c2ccc(Br)cc2)c(C(F)(F)F)nn1-c1ccc(C(=O)NCC(F)(F)F)cc1 [I-A-Q2-189],I-A-Q2-189: log P (HCOOH): 3.53
10,CNC(=O)c1ccc(-n2nc(C(F)(F)F)c(-c3cccc(Cl)c3)c2N)cc1 [I-A-Q2-094],I-A-Q2-094: log P (HCOOH): 2.76
11,Cc1cc(-n2nc(C(F)(F)F)c(Br)c2N)ccc1C(=O)O [XI-A-086],XI-A-086: log P (HCOOH): 2.54
12,Cc1cc(-n2nc(C(F)(F)Oc3cc(Cl)ccc3Cl)c(-c3cc(Cl)cc(C(F)(F)F)c3)c2N)ccc1C(=O)NCC(F)(F)C(F)F [I-A-Q2-296],I-A-Q2-296: log P (HCOOH): 5.14
13,Cc1cc(-n2nc(C(F)(F)F)c(-c3cc(Cl)cc(Cl)c3)c2N)ccc1C(=O)NCc1cccnc1 [I-A-Q2-216],I-A-Q2-216: log P (HCOOH): 2.57
14,Nc1c(-c2cc(Cl)cc(Cl)c2)c(C(F)(F)F)nn1-c1ccc(C(=O)NCC(F)(F)C(F)F)c(Cl)c1 [I-A-Q2-384],I-A-Q2-384: log P (HCOOH): 4.53
15,CC(NC(=O)c1ccc(-n2nc(C(F)(F)F)c(-c3cccc(Br)c3)c2N)cc1)C(F)(F)F (stereo not drawn) [I-A-Q2-172],I-A-Q2-172: log P (HCOOH): 3.73
16,Cc1cc(-n2nc(C(F)(F)F)c(-c3cc(Cl)cc(Cl)c3)c2N)ccc1C(=O)NCc1ccc(C(F)(F)F)nc1 [I-A-Q2-060],I-A-Q2-060: log P (HCOOH): 4.34

# Same assay, conditions: HCOOH; Table 4, compounds of formula I-A-Q4
row,Structure (SMILES),log P (HCOOH)
1,Nc1c(-c2ccc(F)cc2F)c(C(F)F)nn1-c1ccc(Cl)cn1 [I-A-Q4-056],I-A-Q4-056: log P (HCOOH): 3.84
2,Nc1c(-c2cc(F)c(F)c(F)c2)c(C(F)(F)F)nn1-c1ccc(C(=O)O)cc1 [I-A-Q4-099],I-A-Q4-099: log P (HCOOH): 3.32
3,CN(C)c1cc(-n2nc(C(F)(F)F)c(-c3cc(Cl)cc(Cl)c3)c2N)ccc1C(=O)O [I-A-Q4-121],I-A-Q4-121: log P (HCOOH): 3.07
4,Cc1nn(-c2ccc(Cl)cn2)c(N)c1-c1cc(Cl)ccc1Cl [I-A-Q4-030],I-A-Q4-030 :log P (HCOOH): 4.57
5,CCOC(=O)c1ccc(-n2nc(C(F)(F)F)c(-c3ccc(Cl)cc3Cl)c2N)cc1 [I-A-Q4-085],I-A-Q4-085: log P (HCOOH): 4.57
6,Nc1c(-c2cc(F)c(F)c(F)c2)c(C(F)(F)F)nn1-c1ccc(Cl)cn1 [I-A-Q4-053],I-A-Q4-053: log P (HCOOH): 4.89
7,FC(F)(F)c1nn(-c2ccc(I)cc2)c(Br)c1-c1cc(Cl)cc(Cl)c1 [I-A-Q4-017],I-A-Q4-017: log P (HCOOH): 6.71

# Same assay, conditions: HCOOH; compounds of the formula (IX), Table 11
row,Structure (SMILES),log P (HCOOH)
1,Nc1[nH]nc(C(F)(F)F)c1-c1cc(Cl)cc(Cl)c1 [IX-021],IX-021: log P (HCOOH): 2.91

# Same assay, conditions: HPLC, reversed-phase C18, mobile phase with formic acid
row,Structure (SMILES),log P (HCOOH)
1,N#Cc1cc(-n2nc(C3CC3)c(-c3ccc(Cl)cc3)c2N)ccc1-n1cncn1 [I-A-Q1-064],I-A-Q1-064: log P (HCOOH): 3.31
2,Cc1nn(-c2ccc(-n3cncn3)c(C#N)c2)c(N)c1-c1cc(F)ccc1F [I-A-Q1-061],I-A-Q1-061: log P (HCOOH): 2.29
3,N#Cc1cc(-n2nc(C(F)(F)F)c(-c3ccc(Br)cc3)c2N)ccc1-n1cncn1 [I-A-Q1-040],I-A-Q1-040: log P (HCOOH): 3.44
4,Cc1ccccc1-c1c(C(F)(F)F)nn(-c2ccc(-n3cncn3)c(C#N)c2)c1N [I-A-Q1-039],I-A-Q1-039: log P (HCOOH): 2.89
5,N#Cc1ccc(-c2c(C(F)(F)F)nn(-c3ccc(-n4cncn4)c(C#N)c3)c2N)cc1 [I-A-Q1-047],I-A-Q1-047: log P (HCOOH): 2.64
